Reference: US5942537A, “Method of inhibiting the transport of L-glutamate to treat CNS disorders” (The Regents of the University of California, priority 1993, dated 1999)

Tests used:
[1] = molecular target: T1, high affinity transport of 3H-L-glutamate into synaptosomes (Rattus norvegicus, UniProt P31596); experiment: Synaptosomal uptake of 3H-L-glutamate; assay type: biochemical; details: 10 μM 3H-L-glutamate; for inhibition of glutamate transport (in words): isomers at similar concentrations (20 μM)
T1 construct: Synaptosomes were prepared by the procedure of Booth et al; from tissue; host or cells: brain synaptosomes (Ficoll/sucrose gradient)
T1 sequence (P31596 whole entry): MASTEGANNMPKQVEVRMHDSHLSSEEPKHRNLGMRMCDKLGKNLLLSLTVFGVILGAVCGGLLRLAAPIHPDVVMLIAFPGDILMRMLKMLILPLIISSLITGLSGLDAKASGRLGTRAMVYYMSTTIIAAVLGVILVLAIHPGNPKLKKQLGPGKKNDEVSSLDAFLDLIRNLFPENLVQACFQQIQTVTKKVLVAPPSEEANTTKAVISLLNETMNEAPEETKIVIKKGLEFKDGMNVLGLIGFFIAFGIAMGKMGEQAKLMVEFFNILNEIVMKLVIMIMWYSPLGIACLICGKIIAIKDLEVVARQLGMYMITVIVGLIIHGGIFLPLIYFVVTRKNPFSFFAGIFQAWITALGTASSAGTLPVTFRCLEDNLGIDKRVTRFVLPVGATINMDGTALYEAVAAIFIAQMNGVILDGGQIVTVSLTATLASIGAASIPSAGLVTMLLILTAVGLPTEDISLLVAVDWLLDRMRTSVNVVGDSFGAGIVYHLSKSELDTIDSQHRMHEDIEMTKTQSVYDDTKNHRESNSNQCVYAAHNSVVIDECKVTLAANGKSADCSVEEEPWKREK
Procedure: Synaptosomal uptake of ^3 H-L-glutamate (10 μM) was followed at 37° C. in the presence and absence of 20 μM PDC isomers. The curves shown are from representative experiments (n=2-4 rate determinations) and are reported as mean ±SD. Transport rates were determined by linear regression analysis and have been corrected for background and non-specific uptake. The effect of the PDC isomers and is reported as % of control transport rate ±SD (n=8-16 rate determinations).
(§1) The Synaptosomes were prepared by the procedure of (a) Booth, R. F. G.; Clark, J. B., Biochem J. 176, 365 (1978) and assayed for synaptosomal uptake as described by (b) Kuhar, M. M.; Zarbin, M. J., Neurochem 31, 251 (1978), both which are incorporated by reference herein. The binding specificities of the four PDC isomers were determined by testing both their ability to inhibit the high affinity transport of ^3 H-L-glutamate into synaptosomes and to block the binding of radioligands to each of the three receptor sites in a synaptic plasma membrane preparation (SPM) (Synaptic plasma membranes were prepared and NMDA receptor binding quantified as described by Monaghan, D. T.; Cotman, C. W., Proc. Nat. Acad. Sci. U.S.A. 83, 7532 (1986) incorporated by reference herein). When included in the ^3 H-L-glutamate uptake assay, as represented in FIG. 3, at only a 2-fold excess relative to L-glutamate (10 μM of ^3 H-L-glutamate vs. 20 μM of 7), the L-trans-2,4-PDC isomer reduced the rate of synaptosomal transport from control levels of 1.13 nmol min^-1 mg-protein^-1 to 0.16 nmol min^-1 mg-protein^-1. […] This selective inhibition by L-trans-2,4-PDCclearly delineates a preferred configurational and/or conformational relationship for binding to the glutamate uptake protein.
Synaptosomes were prepared by the procedure of Booth et al., (Biochem J. 176:365 (1978) incorporated by reference herein), using Ficoll/sucrose gradient centrifugation. Uptake of ^3 H-L-glutamate was followed essentially as described by Kuhar and Zarbin (J. Neurochem 31:[…] (1978) incorporated by reference herein.) Synaptosomes were suspended in a physiological buffer (Krebs-Ringer phosphate buffer) and preincubated at 37° C. for 5 min. The uptake assay was initiated by the addition of ^3 H-L-glutamate (0.1-100 μM). Aliquots were removed at appropriate times (0.5-10 min) and were rapidly filtered on GF/F glass fiber filters. The filters were rapidly washed with 20 volumes of ice cold buffer. Radioactivity present on the filters was determined by liquid scintillation counting. Uptake rates were corrected for both background (i.e., uptake at 0 min) and leakage (i.e., uptake at 0° C.).

QA receptors = experiment: 3H-AMPA binding to QA receptors in synaptic plasma membranes; set-up: species or system rat; details: for ^3 H-AMPA binding to QA receptors, % of Control: diacid 100 μM, % of control binding ± s.d., corrected for nonspecific binding
Procedure: (§2) To further characterize the pharmacological specificity of the PDC conformers and identify other potential sites at which the transport inhibitor could bind, the compounds were tested for their ability to inhibit the binding of ^3 H-L-glutamate to NMDA receptors, ^3 H-KA binding to KA receptors, and ^3 H-AMPA (α-amino-3-hydroxy-5-methylisoxazole-4-propionic acid) binding to QA receptors. Binding to kainate receptors was quantified by the procedures of (a) Simon, J. R.; Contrera, J. F.; Kuhar, M. J., J. Neurochem 26, 141 (1976), and (b) London, E. D.; Coyle, J. T.; Molec. Pharm. 15, 492 (1979) which are incorporated by reference herein. Binding to quisqualate receptors (QA) were quantified as described by (c) Honore, T.; Lauridsen, J.; Krogsgaard-Larsen, P. J., Neurochem 1982, 38, 173, which are incorporated by reference herein. […] This lack of interaction with any of the excitatory receptors is in direct contrast with its potent inhibition of transport and identifies L-trans-2,4-PDC as a specific probe of the L-glutamate transport system.
(§3) Synaptic plasma membrane (SPMS) were prepared as previously described (Monaghan, D. T.; Cotman, C. W., Proc. Nat. Acad. Sci. U.S.A. 83:7532 (1986) incorporated by reference herein.) Briefly, male Sprague-Dawley rats (200 g) were decapitated, their forebrains were rapidly removed, and the brain tissue homogenized in 0.32M sucrose. Following differential centrifugation, a membrane fraction enriched in synapses, but low in myelin and mitochondria, was obtained. This membrane fraction was washed three times with […] Tris-acetate buffer, pH 7.2, and diluted into the appropriate assay buffer to about 200 μg protein/ml.
(§4) Binding to NMDA, KA, and QA receptors were quantified with ^3 H-L-glutamate, ^3 H-KA, and ^3 H-AMPA respectively. The binding assays were carried out using optimally selective conditions of time, temperature, and buffer for each of the three receptor classes. ^3 H-L-Glutamate binding was quantified under conditions that selectively label NMDA receptors. The SPMs were incubated with ^3 H-L-glutamate (10 nM, 50.9 Ci/mmol) in 50 mM Tris-acetate, pH 7.0, at 4° C. for 30 minutes. Non-specific binding was determined by the inclusion of 500 μM L-glutamate. KA receptors were quantified as previously described. ^3 H-KA (10 nM, 60 Ci/mmol) binding was determined in 50 mM Tris-citrate buffer, pH 7.0, at 4° C. for 30 min. Non-specific binding was determined by the inclusion of 100 μM unlabeled KA. QA receptors were measured with ^3 H-AMPA binding as described by Honore et al. J. Neurochem. 38:173-178 (1982). Essentially, 3 H-AMPA (10 nM, 27.6 Ci/mmol) binding is quantified in 50 mM Tris-acetate buffer, pH 7.2, containing 100 mM KSCN for 30 minutes at 4° C. Non-specific binding was determined by the inclusion of 100 μM quisqualic acid. In the inhibition studies, the conformationally defined analogues were included in the assay mixture at the appropriate concentrations (0.1-200 μM). The assays (total volume, 1.08 mL) were initiated by the addition of radiolabel and terminated by centrifugation (Beckman Microfuge, top speed, 3 min). Unbound radioligand in the supernatant was removed by suction and the radioactivity in the pellet quantified by liquid scintillation counting. All of the binding studies were carried out as 2 sets of triplicates within a single experiment and each experiment was repeated at least 3 times.

KA receptors = experiment: 3H-KA binding to KA receptors in synaptic plasma membranes; set-up: species or system rat; details: for ^3 H-KA binding to KA receptors, % of Control: diacid 100 μM, % of control binding ± s.d., corrected for nonspecific binding
Procedure: as §2, §3, §4

NMDA receptors = experiment: 3H-L-glutamate binding to NMDA receptors in synaptic plasma membranes; set-up: species or system rat; details: for ^3 H-L-GLU binding to NMDA receptors, % of Control: % of control binding ± s.d., corrected for nonspecific binding; for inhibition of ^3 H-L-glutamate binding to the NMDA receptor (in words): as reported in Table 1
Procedure: as §1, §2, §3
Binding to NMDA, KA, and QA receptors were quantified with ^3 H-L-glutamate, ^3 H-KA, and ^3 H-AMPA respectively. The binding assays were carried out using optimally selective conditions of time, temperature, and buffer for each of the three receptor classes. ^3 H-L-Glutamate binding was quantified under conditions that selectively label NMDA receptors. The SPMs were incubated with ^3 H-L-glutamate (10 nM, 50.9 Ci/mmol) in 50 mM Tris-acetate, pH 7.0, at 4° C. for 30 minutes. Non-specific binding was determined by the inclusion of 500 μM L-glutamate. KA receptors were quantified as previously described. ^3 H-KA (10 nM, 60 Ci/mmol) binding was determined in 50 mM Tris-citrate buffer, pH 7.0, at 4° C. for 30 min. Non-specific binding was determined by the inclusion of 100 μM unlabeled KA. QA receptors were measured with ^3 H-AMPA binding as described by Honore et al. J. Neurochem. 38:173-178 (1982). […]

SMILES | inhibition of glutamate transport (in words) [1] | ^3 H-AMPA binding to QA receptors, % of Control (QA receptors) | ^3 H-KA binding to KA receptors, % of Control (KA receptors) | ^3 H-L-GLU binding to NMDA receptors, % of Control (NMDA receptors; diacid 100 μM) | rate of synaptosomal transport ([1]; 20 μM compound, 37° C., control level 1.13) | inhibition at 20 µM ([1]; 20 μM compound, read-out: reduction in the rate of uptake) | inhibition of radioligand binding to QA receptors (in words) (QA receptors; compound in 10^4 -fold excess) | inhibition of radioligand binding to KA receptors (in words) (KA receptors; compound in 10^4 -fold excess) | inhibition of ^3 H-L-glutamate binding to the NMDA receptor (in words) (NMDA receptors) | ^3 H-L-GLU binding to NMDA receptors, % of Control (NMDA receptors; diacid 20 μM)
O=C(O)[C@@H]1CN[C@H](C(=O)O)C1 [Diacid 4, cis-4-Carboxy-L-proline] | substantially less effective | 102 ± 12 % of Control | 100 ± 12 % of Control | 89 ± 13 % of Control | – | – | – | – | – | –
O=C(O)[C@H]1CN[C@H](C(=O)O)C1 [Diacid 7, trans-4-Carboxy-L-proline] | potent inhibitor | 109 ± 13 % of Control | 102 ± 10 % of Control | 87 ± 10 % of Control | 0.16 nmol min^-1 mg-protein^-1 | > 80% | did not significantly inhibit | did not significantly inhibit | did not significantly inhibit | –
O=C(O)[C@@H]1CN[C@@H](C(=O)O)C1 [Diacid 11, trans-4-Carboxy-D-proline] | substantially less effective | 108 ± 11 % of Control | 92 ± 6 % of Control | 95 ± 12 % of Control | – | – | – | – | weakly inhibiting | –
O=C(O)[C@H]1CN[C@@H](C(=O)O)C1 [Diacid 14, cis-4-Carboxy-D-proline] | substantially less effective | 110 ± 9 % of Control | 101 ± 6 % of Control | 38 ± 12 % of Control | – | – | – | – | – | 76 ± 5 % of Control
